Calls of active or inactive are those of the source. The rule behind the calls is not given here.
How the values were obtained:
A549 [1] = experiment: Growth inhibition of human A549 cells after 48 hrs by MTT assay; assay type: functional, cell-based; settings: A549, 48 h
A549 [2] = experiment: Growth inhibition of human A549 cells after 96 hrs by MTT assay; assay type: functional, cell-based; settings: A549, 96 h
A549 [3] = experiment: Induction of apoptosis in human A549 cells assessed as nuclear and acidic compartment morphology at 80 uM; assay type: functional, cell-based
NCI-H460 [4] = experiment: Induction of apoptosis in human H460 cells assessed as nuclear and acidic compartment morphology at 80 uM; assay type: functional, cell-based
A549 [5] = experiment: Induction of autophagy in human A549 cells assessed as nuclear and acidic compartment morphology at 10 to 80 uM after 24 hrs; assay type: functional, cell-based
A549 [6] = experiment: Induction of autophagy in human A549 cells assessed as nuclear and acidic compartment morphology at 80 uM after 48 hrs; assay type: functional, cell-based
NCI-H460 [7] = experiment: Induction of autophagy in human H460 cells assessed as nuclear and acidic compartment morphology at 80 uM after 24 hrs; assay type: functional, cell-based
NCI-H460 [8] = experiment: Induction of autophagy in human H460 cells assessed as nuclear and acidic compartment morphology at 80 uM after 48 hrs; assay type: functional, cell-based
A549 [9] = experiment: Induction of necrosis in human A549 cells assessed as LDH release at 80 uM after 24 hrs; assay type: functional, cell-based
NCI-H460 [10] = experiment: Induction of necrosis in human H460 cells assessed as LDH release at 80 uM after 24 hrs; assay type: functional, cell-based
A549 [11] = experiment: Induction of necrosis in human A549 cells assessed as LDH release at 80 uM after 48 hrs; assay type: functional, cell-based
NCI-H460 [12] = experiment: Induction of necrosis in human H460 cells assessed as LDH release at 80 uM after 48 hrs; assay type: functional, cell-based
A549 [13] = experiment: Antiproliferative activity against human A549 cells assessed as cell viability at 80 uM after 96 hrs by MTT assay; assay type: functional; settings: A549, 96 h, read-out: Activity
HUVEC [14] = experiment: Antiproliferative activity against HUVEC assessed as cell viability after 24 hrs by MTT assay; assay type: cell-based; settings: human
HUVEC [15] = experiment: Antiproliferative activity against HUVEC assessed as cell viability after 48 hrs by MTT assay; assay type: cell-based; settings: human
A549 [16] = experiment: Effect on morphological changes in human A549 cells at 10 to 80 uM after 24 hrs; assay type: functional, cell-based
A549 [17] = experiment: Effect on morphological changes in human A549 cells at 10 to 80 uM after 48 hrs; assay type: functional, cell-based
A549 [18] = experiment: Antiproliferative activity against human A549 cells assessed as cell viability at 40 uM after 24 hrs by MTT assay; assay type: functional; settings: A549, 24 h, read-out: Activity
A549 [19] = experiment: Antiproliferative activity against human A549 cells assessed as cell viability at 40 uM after 48 hrs by MTT assay relative to control; assay type: functional; settings: A549, 48 h, read-out: Activity
A549 [20] = experiment: Antiproliferative activity against human A549 cells assessed as cell viability at 80 uM after 48 hrs by MTT assay; assay type: functional; settings: A549, 48 h, read-out: Activity
HUVEC [21] = experiment: Induction of HUVEC growth at 10 uM after 24 hrs by MTT assay; assay type: functional, cell-based; settings: Homo sapiens

IC50 (A549 [1]) [µM] | IC50 (A549 [2]) [µM] | SMILES | Activity (A549 [3]) | Activity (NCI-H460 [4]) | Activity (A549 [5]) | Activity (A549 [6]) | Activity (NCI-H460 [7]) | Activity (NCI-H460 [8]) | Activity (A549 [9]) | Activity (NCI-H460 [10]) | Activity (A549 [11]) | Activity (NCI-H460 [12]) | viability at 80 µM (A549 [13]) [%] | viability at 40 µM (A549 [18]) [%] | viability at 40 µM (A549 [19]) [%] | viability at 80 µM (A549 [20]) [%] | also measured
74 | 40 | COc1ccccc1OCC(O)Cn1nc(-c2ccc(Cl)cc2)cc1C(=O)NN (centres undefined) | inactive | inactive | Active | Active | Active | Active | inactive | inactive | inactive | inactive |  |  |  |  | 
70 | 51 | COc1ccc(-c2cc(C(=O)NN)n(CC(O)COc3ccccc3OC)n2)cc1 (centres undefined) | inactive | inactive | Active | Active | Active | Active | inactive | inactive | inactive | inactive |  |  |  |  | 
48 | 30 | NNC(=O)c1cc(-c2ccccc2)nn1CC(O)COc1ccc(Cl)cc1 (centres undefined) | inactive | inactive | Active | Active | Active | Active | inactive | inactive | inactive | inactive | 6 | 72 | 56 | 29 | Activity (HUVEC [14]): Not Active; Activity (HUVEC [15]): Not Active; Activity (A549 [16]): Active; Activity (A549 [17]): Active
39 | 37 | NNC(=O)c1cc(-c2ccc(Cl)cc2)nn1CC(O)COc1ccc([N+](=O)[O-])cc1 (centres undefined) | inactive | inactive | Active | Active | Active | Active | inactive | inactive | inactive | inactive | 6 | 72 | 56 | 29 | 
32 | 27 | NNC(=O)c1cc(-c2ccc(Cl)cc2)nn1CC(O)COc1ccc(Cl)cc1 (centres undefined) | inactive | inactive | Active | Active | Active | Active | inactive | inactive | inactive | inactive | 6 | 72 | 56 | 29 | Activity (HUVEC [14]): Not Active; Activity (HUVEC [15]): Not Active; Activity (HUVEC [21]): Active; Activity (A549 [16]): Active; Activity (A549 [17]): Active
72 | 45 | NNC(=O)c1cc(-c2ccccc2)nn1CC(O)COc1ccc([N+](=O)[O-])cc1 (centres undefined) | inactive | inactive | Active | Active | Active | Active | inactive | inactive | inactive | inactive |  |  |  |  | 
39 | 35 | COc1ccc(-c2cc(C(=O)NN)n(CC(O)COc3ccc(Cl)cc3)n2)cc1 (centres undefined) | inactive | inactive | Active | Active | Active | Active | inactive | inactive | inactive | inactive |  | 62 | 40 |  | 
72 | 49 | COc1ccccc1OCC(O)Cn1nc(-c2ccccc2)cc1C(=O)NN (centres undefined) | inactive | inactive | Active | Active | Active | Active | inactive | inactive | inactive | inactive |  |  |  |  | 

From ChEMBL document CHEMBL1155123, “Synthesis and discovery of autophagy inducers for A549 and H460 lung cancer cells, novel 1-(2'-hydroxy-3'-aroxypropyl)-3-aryl-1H-pyrazole-5-carbohydrazide derivatives” (Bioorg Med Chem Lett, 2008)
